{"source": "paper PMC4207540", "about": "(Journal of Medicinal Chemistry, 2014)", "key": {"BXD-4687": {"tested_on": "BXD-4687", "format": "cell-based, human"}, "BXD-3752": {"tested_on": "BXD-3752", "format": "cell-based, human"}, "WI-38 fibroblast cells": {"tested_on": "WI-38 fibroblast cells", "assay": "Cytotoxicity assay", "format": "cell-based"}, "IDH1(R132H)": {"target": "IDH1(R132H) (Homo sapiens, UniProt O75874, R132H)", "sequence (O75874 whole entry R132H)": "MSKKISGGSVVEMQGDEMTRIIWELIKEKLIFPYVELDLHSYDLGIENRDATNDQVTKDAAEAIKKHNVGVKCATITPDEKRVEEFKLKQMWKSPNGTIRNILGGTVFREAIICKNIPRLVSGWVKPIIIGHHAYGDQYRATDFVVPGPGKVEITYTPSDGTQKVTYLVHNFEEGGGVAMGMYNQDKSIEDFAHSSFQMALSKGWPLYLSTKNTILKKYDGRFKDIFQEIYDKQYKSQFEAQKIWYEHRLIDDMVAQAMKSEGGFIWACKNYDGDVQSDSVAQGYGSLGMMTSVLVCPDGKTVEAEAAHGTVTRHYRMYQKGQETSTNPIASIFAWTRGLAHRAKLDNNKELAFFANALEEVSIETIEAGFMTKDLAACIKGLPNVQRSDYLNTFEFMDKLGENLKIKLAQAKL", "conditions": "for fold less active than compound 2 against IDH1(R132H): relative to compound 2"}, "WT IDH1 [1]": {"target": "T1, WT IDH1 (Homo sapiens, UniProt O75874)", "T1 sequence (O75874 whole entry)": "as the sequence (O75874 whole entry R132H) above, with H132R counted along it"}, "[2]": {"tested_on": "breast cancer and leukemia cells", "conditions": "cited from earlier work"}, "HT1080 cells": {"tested_on": "HT1080 cells", "assay": "D2HG production inhibition in HT1080 cells", "conditions": "Homo sapiens, HT-1080, 48 h, read-out: IC50 for inhibition of D2HG"}, "WT IDH1 [3]": {"target": "T1, WT IDH1", "assay": "biochemical"}}, "data": [{"smiles": "Cc1ccccc1C(C(=O)NC1CCCCC1)N(C(=O)Cn1ccnc1C)c1cccc(F)c1", "note": "(stereo not drawn) [Compound 1]", "values": [{"measurement": "activity against BXD-4687, in words", "setting": "BXD-4687", "result": "no activity"}, {"measurement": "activity against BXD-3752, in words", "setting": "BXD-3752", "result": "no activity"}, {"measurement": "activity against WI-38, in words", "setting": "WI-38 fibroblast cells", "result": "no activity"}]}, {"smiles": "Cc1cc(Cc2ccccc2)n(O)c(=O)c1", "note": "[Compound 2]", "values": [{"measurement": "EC50", "setting": "WI-38 fibroblast cells; Homo sapiens, WI-38, 48 h, read-out: EC50 against WI-38", "result": "> 50", "unit": "µM"}]}, {"smiles": "O=c1ccc(-c2ccccc2)cn1O", "note": "[Compound 5]", "values": [{"measurement": "inhibitory activity against IDH1(R132H), in words", "setting": "IDH1(R132H)", "result": "very weak activity"}]}, {"smiles": "O=c1cccc(Cc2ccccc2)n1O", "note": "[Compound 7]", "values": [{"measurement": "inhibitory activity against WT IDH1, in words", "setting": "WT IDH1 [1]", "result": "do not inhibit the enzyme"}]}, {"smiles": "Cc1cc(C2CCCCC2)n(O)c(=O)c1", "note": "[Compound 9, Ciclopirox, reference compound]", "values": [{"measurement": "inhibitory activity against IDH1(R132H), in words", "setting": "IDH1(R132H)", "result": "inactive"}, {"measurement": "antiproliferative activity", "setting": "[2]", "result": "low micromolar"}]}, {"smiles": "O=c1ccc(CCc2ccccc2)cn1O", "note": "[Compound 10]", "values": [{"measurement": "inhibitory activity against IDH1(R132H), in words", "setting": "IDH1(R132H)", "result": "lose the inhibitory activity"}]}, {"smiles": "O=c1ccc(CCCc2ccccc2)cn1O", "note": "[Compound 11]", "values": [{"measurement": "inhibitory activity against IDH1(R132H), in words", "setting": "IDH1(R132H)", "result": "lose the inhibitory activity"}]}, {"smiles": "O=c1cccc(-c2ccccc2)n1O", "note": "[Compound 15]", "values": [{"measurement": "inhibitory activity against IDH1(R132H), in words", "setting": "IDH1(R132H)", "result": "inactive"}]}, {"smiles": "CC(c1ccccc1)c1cccc(=O)n1O", "note": "(stereo not drawn) [Compound 16]", "values": [{"measurement": "inhibitory activity against IDH1(R132H), in words", "setting": "IDH1(R132H)", "result": "inactive"}]}, {"smiles": "Cc1cc(COc2ccccc2)n(O)c(=O)c1", "note": "[Compound 19]", "values": [{"measurement": "fold less active than compound 2 against IDH1(R132H)", "setting": "IDH1(R132H)", "result": "~4", "unit": "fold"}]}, {"smiles": "Cc1cc(C)n(O)c(=O)c1", "note": "[Compound 20]", "values": [{"measurement": "inhibitory activity against IDH1(R132H), in words", "setting": "IDH1(R132H)", "result": "inactive"}]}, {"smiles": "O=c1ccc(Cc2ccccc2)c[nH]1", "note": "[Compound 21]", "values": [{"measurement": "inhibitory activity against IDH1(R132H), in words", "setting": "IDH1(R132H)", "result": "lack of activity"}]}, {"smiles": "O=c1ccn(O)c(=O)n1Cc1ccccc1", "note": "[Compound 25]", "values": [{"measurement": "inhibitory activity against IDH1(R132H), in words", "setting": "IDH1(R132H)", "result": "lack of activity"}]}, {"smiles": "O=c1n(O)ccn1Cc1ccccc1", "note": "[Compound 26]", "values": [{"measurement": "inhibitory activity against IDH1(R132H), in words", "setting": "IDH1(R132H)", "result": "lack of activity"}]}, {"smiles": "Cc1cc(Cc2ccccc2)n(N)c(=O)c1", "note": "[Compound 27]", "values": [{"measurement": "fold less active than compound 2 against IDH1(R132H)", "setting": "IDH1(R132H)", "result": 20, "unit": "fold"}]}, {"smiles": "Cc1cc(Cc2ccccc2)oc(=O)c1", "note": "[Compound 28]", "values": [{"measurement": "inhibitory activity against IDH1(R132H), in words", "setting": "IDH1(R132H)", "result": "inactive"}]}, {"smiles": "Cc1cc(Cc2ccccc2)oc(=S)c1", "note": "[Compound 29]", "values": [{"measurement": "inhibitory activity against IDH1(R132H), in words", "setting": "IDH1(R132H)", "result": "inactive"}]}, {"smiles": "Cc1ccn(O)c(=O)c1Cc1ccccc1", "note": "[Compound 30]", "values": [{"measurement": "fold less active than compound 2 against IDH1(R132H)", "setting": "IDH1(R132H)", "result": 50, "unit": "fold"}]}, {"smiles": "CC(C)c1cc(Cc2ccccc2)n(O)c(=O)c1", "note": "[Compound 33]", "values": [{"measurement": "inhibitory activity against WT IDH1, in words", "setting": "WT IDH1 [1]", "result": "do not inhibit the enzyme"}, {"measurement": "IC50", "setting": "HT1080 cells", "result": "> 30", "unit": "µM"}]}, {"smiles": "O=c1cc(O)cc(Cc2ccccc2)n1O", "note": "[Compound 34]", "values": [{"measurement": "inhibitory activity against WT IDH1, in words", "setting": "WT IDH1 [1]", "result": "do not inhibit the enzyme"}, {"measurement": "Ki", "setting": "WT IDH1 [3]", "result": "> 30", "unit": "µM"}, {"measurement": "IC50", "setting": "HT1080 cells", "result": "9.7 ± 1.8", "unit": "µM"}]}, {"smiles": "COc1cccc(Cc2cc(C)cc(=O)n2O)c1", "note": "[Compound 39]", "values": [{"measurement": "inhibitory activity against WT IDH1, in words", "setting": "WT IDH1 [1]", "result": "do not inhibit the enzyme"}]}, {"smiles": "Cc1cc(Cc2cccc(O)c2)n(O)c(=O)c1", "note": "[Compound 40]", "values": [{"measurement": "inhibitory activity against WT IDH1, in words", "setting": "WT IDH1 [1]", "result": "do not inhibit the enzyme"}]}, {"smiles": "COc1ccccc1Cc1cc(C)cc(=O)n1O", "note": "[Compound 41]", "values": [{"measurement": "fold less active than compound 2 against IDH1(R132H)", "setting": "IDH1(R132H)", "result": "~2", "unit": "fold"}]}, {"smiles": "Cc1cc(Cc2ccccc2O)n(O)c(=O)c1", "note": "[Compound 42]", "values": [{"measurement": "fold less active than compound 2 against IDH1(R132H)", "setting": "IDH1(R132H)", "result": "~2", "unit": "fold"}]}, {"smiles": "Cc1cc(Cc2cccc(F)c2)n(O)c(=O)c1", "note": "[Compound 43]", "values": [{"measurement": "fold less active than compound 2 against IDH1(R132H)", "setting": "IDH1(R132H)", "result": "~10", "unit": "fold"}]}, {"smiles": "Cc1cc(Cc2c(F)c(F)c(F)c(F)c2F)n(O)c(=O)c1", "note": "[Compound 44]", "values": [{"measurement": "fold less active than compound 2 against IDH1(R132H)", "setting": "IDH1(R132H)", "result": "~10", "unit": "fold"}]}, {"smiles": "COc1ccc(-c2ccc(Cc3cc(C)cc(=O)n3O)cc2)cc1", "note": "[Compound 58]", "values": [{"measurement": "selectivity for BT-142 over glioma cells without IDH1 mutation (BXD-4687, -3752)", "setting": "BT-142 glioma cells", "result": "> 10", "unit": "fold"}]}]}
